Measurements from patent publication US11464770B2, “Anticancer pharmaceutical composition” (NATIONAL CANCER CENTER, priority 2016, dated 2022).
Where two headings read alike, the source gives them in different places.

Key:
[1] = system: RT4: human urinary bladder transitional cell papilloma; assay: Cell based assay, cytotoxicity in RT4 papilloma cells (selectivity); settings: Homo sapiens, RT-4; RT4 cells
[2] = system: bladder cancer cell lines; assay: Cell based assay, cell viability (CellTiter-Glo), bladder cancer cell lines; settings: 72 hours treatment, 0 to 2 μM, CellTiter-Glo
How it was run: (§1)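 72-hour continuous compound exposure, 0 to 2 μM final, begun one day after seeding; endpoint is ATP-based luminescent viability.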

liver cancer cell lines = assay: Cell based assay, cell viability (CellTiter-Glo), liver cancer cell lines; settings: Homo sapiens, SK-HEP1; SK-HEP-1 cell line
How it was run: as §1

neuroblastoma cell lines = assay: Cell based assay, cell viability (CellTiter-Glo), neuroblastoma cell lines; settings: Homo sapiens; SH-SY5Y cell line
How it was run: as §1

[3] = system: ovarian cancer cell lines; assay: Cell based assay, cell viability (CellTiter-Glo), ovarian cancer cell lines; settings: Homo sapiens; OVCAR-3 cells
How it was run: as §1

[4] = system: prostate cancer cell lines (e.g. DU145/TXR); assay: Cell based assay, cell viability (CellTiter-Glo), prostate cancer cell lines; settings: Homo sapiens, 72 hours treatment, final concentration 0 to 2 μM
How it was run: as §1

[5] = 253J cells, read-out: IC50, bladder cancer cell line 253J
[6] = 5637 cells, read-out: IC50, bladder cancer cell line 5637
[7] = Homo sapiens, T-24, T24 cells, read-out: IC50, bladder cancer cell line T24
[8] = Homo sapiens, J82 cells, read-out: IC50, bladder cancer cell line J82
[9] = CWR22 cells, read-out: IC50, prostate cancer cell line CWR22
[10] = DU-145, DU145/TXR cells, read-out: IC50, prostate cancer cell line DU145/TXR
[11] = DU-145, DU145 cells, read-out: IC50, prostate cancer cell line DU145
[12] = LNcap cells, read-out: IC50, prostate cancer cell line LNcap
[13] = Homo sapiens, UMUC3, UM-UC-3 cells, read-out: IC50, bladder cancer cell line UM-UC-3
[14] = Homo sapiens, KU-19-19 cells, read-out: IC50, bladder cancer cell line KU-19-19
[15] = MBT-2 cells, read-out: IC50, bladder cancer cell line MBT-2
[16] = PC-3 cells, read-out: IC50, prostate cancer cell line PC-3

Row | SMILES | IC50 [1] [µM] | IC50 [2, 5] [µM] | IC50 [2, 6] [µM] | IC50 [2, 7] [µM] | IC50 [2, 8] [µM] | IC50 (liver cancer cell lines) [µM] | IC50 (neuroblastoma cell lines) [µM] | IC50 [3] [µM] | IC50 [4, 9] [µM] | IC50 [4, 10] [µM] | IC50 [4, 11] [µM] | IC50 [4, 12] [µM] | IC50 [2, 13] [µM] | IC50 [2, 14] [µM] | IC50 [2, 15] [µM] | IC50 [4, 16] [µM]
1 | CC(=O)c1c([S+]([O-])Cc2ccc(C(F)(F)F)o2)[nH]c2c(F)ccc(F)c2c1=O (stereo not shown) [Compound 81, 3-acetyl-5,8-difluoro-2-(((5-(trifluoromethyl)furan-2-yl)methyl)sulfinyl)quinolin-4(1H)-one] | > 10 | > 2 | > 2 | > 2 | > 2 | > 2 | > 2 | > 2 | > 2 | > 2 | > 2 | > 2 | – | – | – | –
2 | CC(=O)c1c([S+]([O-])Cc2cc(C)on2)[nH]c2c(F)ccc(F)c2c1=O (stereo not shown) [Compound 82, 3-acetyl-5,8-difluoro-2-(((5-methylisoxazol-3-yl)methyl)sulfinyl)quinolin-4(1H)-one] | > 10 | > 2 | > 2 | > 2 | > 2 | > 2 | 1.55 | > 2 | > 2 | > 2 | > 2 | > 2 | – | – | – | –
3 | CC(C)C(=O)c1c([S+]([O-])Cc2ccc(SC(F)(F)F)cc2)[nH]c2c(F)ccc(F)c2c1=O (stereo not shown) [Compound 85, 5,8-difluoro-3-isobutyryl-2-((4-((trifluoromethyl)thio)benzyl)sulfinyl)quinolin-4(1H)-one] | > 10 | > 2 | > 2 | > 2 | > 2 | > 2 | > 2 | > 2 | > 2 | > 2 | > 2 | > 2 | – | – | – | –
4 | O=C(c1ccccc1)c1c([S+]([O-])Cc2ccc(S(F)(F)(F)(F)F)cc2)[nH]c2c(F)ccc(F)c2c1=O (stereo not shown) [Compound 87, 3-benzoyl-5,8-difluoro-2-((4-(pentafluoro--sulfanyl)benzyl)sulfinyl)quinolin-4(1H)-one] | > 10 | > 2 | > 2 | > 2 | > 2 | > 2 | > 2 | > 2 | > 2 | > 2 | > 2 | > 2 | – | – | – | –
5 | Cc1cc(C[S+]([O-])c2[nH]c3c(Cl)ccc(Cl)c3c(=O)c2C(=O)c2ccccc2)no1 (stereo not shown) [Compound 88, 3-benzoyl-5,8-dichloro-2-(((5-methylisoxazol-3-yl)methyl)sulfinyl)quinolin-4(1H)-one] | > 10 | > 2 | > 2 | > 2 | > 2 | > 2 | 1.51 | > 2 | > 2 | > 2 | > 2 | > 2 | – | – | – | –
6 | CC(=O)c1c([S+]([O-])CN2C(=O)c3ccccc3C2=O)[nH]c2c(Cl)ccc(Cl)c2c1=O (stereo not shown) [Compound 90, 2-(((3-acetyl-5,8-dichloro-4-oxo-1,4-dihydroquinolin-2-yl)sulfinyl)methyl)isoindoline-1,3-dione] | > 10 | > 2 | > 2 | > 2 | > 2 | > 2 | > 2 | > 2 | > 2 | > 2 | > 2 | > 2 | > 2 | > 2 | > 2 | > 2
7 | COC(=O)c1ccc(C[S+]([O-])c2[nH]c3c(Cl)ccc(Cl)c3c(=O)c2C(C)=O)cc1 (stereo not shown) [Compound 91, methyl 4-(((3-acetyl-5,8-dichloro-4-oxo-1,4-dihydroquinolin-2-yl)sulfinyl)methyl)benzoate] | > 10 | > 2 | > 2 | > 2 | > 2 | 1.72 | 1.22 | 1.74 | > 2 | 1.98 | > 2 | > 2 | – | – | – | –
8 | COc1cccc2[nH]c(SCc3ccc(S(F)(F)(F)(F)F)cc3)c(C(C)=O)c(=O)c12 [Compound 92, 3-acetyl-5-methoxy-2-((4-(pentafluoro--sulfanyl)benzyl)thio)quinolin-4(1H)-one] | > 10 | > 2 | > 2 | > 2 | > 2 | > 2 | > 2 | > 2 | > 2 | > 2 | > 2 | > 2 | > 2 | > 2 | > 2 | > 2
9 | COc1cccc2[nH]c([S+]([O-])Cc3ccc(S(F)(F)(F)(F)F)cc3)c(C(C)=O)c(=O)c12 (stereo not shown) [Compound 93, 3-acetyl-5-methoxy-2-((4-(pentafluoro--sulfanyl)benzyl)sulfinyl)quinolin-4(1H)-one] | > 10 | > 2 | > 2 | > 2 | > 2 | > 2 | > 2 | > 2 | > 2 | > 2 | > 2 | > 2 | – | – | – | –
10 | COc1cccc2[nH]c([S+]([O-])Cc3cc(C)on3)c(C(C)=O)c(=O)c12 (stereo not shown) [Compound 94, 3-acetyl-5-methoxy-2-(((5-methylisoxazol-3-yl)methyl)sulfinyl)quinolin-4(1H)-one] | > 10 | > 2 | > 2 | > 2 | > 2 | > 2 | 1.76 | 1.1 | > 2 | > 2 | > 2 | > 2 | – | – | – | –
11 | Cc1cc(C[S+]([O-])c2[nH]c3c(Br)ccc(Cl)c3c(=O)c2C(=O)C2CC2)no1 (stereo not shown) [Compound 96, 8-bromo-5-chloro-3-(cyclopropanecarbonyl)-2-(((5-methylisoxazol-3-yl)methyl)sulfinyl)quinolin-4(1H)-one] | > 10 | – | > 2 | 1.66 | > 2 | 1.96 | 0.77 | 0.75 | 1.9 | 1.77 | 1.74 | > 2 | – | – | – | > 2
12 | Cc1cc(C[S+]([O-])c2[nH]c3c(Cl)ccc(Cl)c3c(=O)c2C(=O)C2CC2)no1 (stereo not shown) [Compound 97, 5,8-dichloro-3-(cyclopropanecarbonyl)-2-(((5-methylisoxazol-3-yl)methyl)sulfinyl)quinolin-4(1H)-one] | > 10 | – | 1.91 | – | > 2 | 1.07 | 0.6 | 0.59 | 1.48 | 1.5 | 1.28 | > 2 | – | – | – | 1.7
13 | CC(=O)c1c([S+]([O-])Cc2ccc(C#N)s2)[nH]c2c(Br)ccc(Cl)c2c1=O (stereo not shown) [Compound 98, 5-(((3-acetyl-8-bromo-5-chloro-4-oxo-1,4-dihydroquinolin-2-yl)sulfinyl)methyl)thiophene-2-carbonitrile] | > 10 | – | > 2 | 1.32 | > 2 | 1.2 | 0.83 | 1.23 | 1.55 | 1.91 | 1.92 | > 2 | – | – | – | > 2
